# Assay results reported in patent publication US6544989B2, “Benzazoles: benzoxazole, benzthiazole and benzimidazole derivatives” (Syngenta Limited, priority 1998, dated 2003).
# Marks after values point to notes of the source that are not given here.
# Columns and labels:
# Plasmopara viticola [1] = assay: Fungicidal test, Plasmopara viticola (PLASVI) on vines, PRCO; type: in vivo; settings: METHOD 2 (unbanded)
# Uncinula necator = assay: Fungicidal test, Uncinula necator (UNCINE) on vines, PRCO; type: in vivo; settings: METHOD 2 (unbanded)
# [2] = test system: Phytophthora infestans lycopersici; type: in vivo; settings: METHOD 1 (values marked *)
# Botrytis cinerea = assay: Fungicidal test, Botrytis cinerea (BOTRCI) on tomatoes, PRCO; type: in vivo; settings: METHOD 2 (unbanded)
# Venturia inaequalis = assay: Fungicidal test, Venturia inaequalis (VENTIN) on apples, PRCO; type: in vivo; settings: METHOD 2 (unbanded)
# [3] = test system: Erysiphe graminis f.sp. tritici; assay: Fungicidal test, Erysiphe graminis f.sp. tritici (ERYSGT) on wheat, PRCO; type: in vivo; settings: 6 hr Prot/Foir; METHOD 1 (values marked *)
# Septoria nodorum [4] = assay: Fungicidal test, Septoria nodorum (LEPTNO) on wheat, PRCO; type: in vivo; settings: METHOD 2 (unbanded)
# Puccinia recondita = assay: Fungicidal test, Puccinia recondita (PUCCRT) on wheat, PRCO; type: in vivo; settings: METHOD 2 (unbanded)
# Pyricularia oryzae = type: in vivo; settings: METHOD 2 (unbanded)
# Rhizoctonia solani [5] = assay: Fungicidal test, Rhizoctonia solani (RHIZSO) on rice, PRCO; type: in vivo; settings: METHOD 2 (unbanded)
# Plasmopara viticola [6] = assay: Synergy test of two-compound mixtures, Plasmopara viticola (PLASVI) on vines, observed and expected PRCO; type: in vivo; settings: Disease on untreated: 95%; Compound 15(A3) 0.2 mg/l alone
# Septoria nodorum [7] = assay: Synergy test of two-compound mixtures, Septoria nodorum (LEPTNO) on wheat, observed and expected PRCO; type: in vivo
# Rhizoctonia solani [8] = assay: Synergy test of two-compound mixtures, Rhizoctonia solani (RHIZSO) on turf, observed and expected PRCO; type: in vivo; settings: Disease on untreated 100%, assessed 5 days after treatment, Compound 15(A3) 300 mg/l alone
# Musca domestica = settings: 500 ppm by weight; knockdown assessed 15 minutes after treatment
# Method: (§1) The activities of individual compounds of formula (I) were determined using a variety of pests. With the exception of nematodes, the pests were treated with a liquid composition containing 500 parts per million (ppm) by weight of a compound unless otherwise stated. Each composition was made by dissolving the compound in an acetone and ethanol (50:50 by volume) mixture and diluting the solution with water containing 0.05% by volume of a wetting agent, SYNPERONIC NP8, until the liquid composition contained the required concentration of the compound.
# The test procedure adopted with regard to each pest, except nematodes, was essentially the same and composed supporting a number of the pests on a medium which was usually a substrate, a host plant or a foodstuff on which the pests feed, and treating either or both the medium and the pests with a composition. Pest mortality was assessed usually between three and five days after treatment Knockdown of housefly (Musca domestica) was assessed 15 minutes after treatment
# Meloidogyne incognita = assay: Nematode test, J2 infective juveniles of Meloidogyne incognita, mortality; settings: 12.5 ppm; J2 infective juveniles suspended in solution; mortality after three days
# Method: as §1
# The test procedure for nematodes involved dissolving the compound in an acetone and ethanol (50:50 by volume) mixture and diluting the solution with water to obtain a final concentration of the compound of 12.5 ppm. J2 infective juveniles of Meloidogyne incognita were suspended in the solution in a glass vial and mortality assessed after a period of three days.
smiles,measurement,setting,value
Cc1nsc(NC(=O)Cc2ccc3oc(CC(C)(C)C)nc3c2)c1Cl [Compound 15(A3)],PLASVI 1 d Prot/Foir PRCO,Plasmopara viticola [1],100
same,UNCINE 1 d Prot/Foir PRCO,Uncinula necator,100
same,PHYTIN 1 d Prot/Foir PRCO,[2],100*
same,BOTRCI 1 d Prot/Foir PRCO,Botrytis cinerea,73
same,VENTIN 1 d Prot/Foir PRCO,Venturia inaequalis,100
same,ERYSGT 6 hr Prot/Foir PRCO,[3],100*
same,LEPTNO 1 d Prot/Foir PRCO,Septoria nodorum [4],71
same,PUCCRT 1 d Prot/Foir PRCO,Puccinia recondita,100
same,PYRIOR 1 d Prot/Foir PRCO,Pyricularia oryzae,100
same,RHIZSO 1 d Prot/Foir PRCO,Rhizoctonia solani [5],5
same,% disease control Observed,Plasmopara viticola [6],45%
same,% disease control Observed,"Septoria nodorum [7]; Test 1 (Disease on untreated: 52%), Compound 15(A3) 50 mg/l alone",16%
same,% disease control Observed,"Septoria nodorum [7]; Test 1 (Disease on untreated: 52%), Compound 15(A3) 100 mg/l alone",27%
same,% disease control Observed,"Septoria nodorum [7]; Test 2 (Disease on untreated: 64%), Compound 15(A3) 50 mg/l alone",21%
same,% disease control Observed,"Septoria nodorum [7]; Test 2 (Disease on untreated: 64%), Compound 15(A3) 100 mg/l alone",21%
same,% disease control Observed,Rhizoctonia solani [8]; Test 1,2.5%
same,% disease control Observed,Rhizoctonia solani [8]; Test 2,6.1%
same,"MUSCDO AC = Musca domestica (knockdown), score",Musca domestica,9 (9 indicates 80-100% mortality)
same,"MELGIN = Meloidogyne incognita, grading of mortality (score)",Meloidogyne incognita,0 (0 indicates less than 40% mortality)
